Measurements published in US20200131176A1, “SELECTIVE INHIBITORS OF CLINICALLY IMPORTANT MUTANTS OF THE EGFR TYROSINE KINASE” (CS Pharmatech Limited, priority 2017, published 2020).
“And” between values parts separate entries of the source, which are not always exact repeats. Identical values can stand only once. Like-named read-outs stand apart in the source and are kept apart here.

How the values were obtained:
A431 cells = assay: A431 inhibition assay (cell proliferation, CellTiter-Glo, 72 h); assay type: cell-based, human
H1975 cells = assay: H1975 inhibition assay (cell proliferation, CellTiter-Glo, 72 h); assay type: cell-based, human; settings: cellular proliferation, double mutant EGFR
INSR = molecular target: T1, INSR (Homo sapiens, UniProt P06213); assay: INSR inhibition assay (Caliper mobility shift); assay type: biochemical; settings: enzyme assay
T1 construct: purchased CARNA BIOSCIENCE 08-142

PC-9 cells = assay: PC-9 growth inhibition assay (cell proliferation, CellTiter-Glo, 72 h); assay type: cell-based, human; settings: cellular proliferation, PC9 cells, single mutant EGFR
[1] = molecular target: T2, Exon 19 deletion EGFR (activating single mutant) in PC-9 cells (Homo sapiens, UniProt P00533, DEL746-750); assay: Exon 19 deletion EGFR PC-9 cellular autophosphorylation assay (p-EGFR ELISA); assay type: cell-based; settings: PC9, 2 h treatment, read-out: SM (PC9) IC50
T2 construct: cellular phosphorylation of endogenous p-EGFR; host or cells: PC9 (PC-9) human lung cell line

IGF-1R = molecular target: T3, IGF-1R (Homo sapiens, UniProt P08069); assay: IGF-1R inhibition assay (Caliper mobility shift); assay type: biochemical; settings: enzyme assay
T3 construct: purchased CARNA BIOSCIENCE 08-141

[2] = system: H1975 NSCLC cells xenograft (EGFR L858R/T790M double mutant); assay: EGFR L858R/T790M double-mutant H1975 xenograft model; assay type: in vivo, nu/nu mice; settings: day 10 after dosing; for Tumor Size: average ± SEM, n = 9
Mouse in vivo PK study [3] = settings: male CD1 mice
Method: To determine the drug concentration in plasma of the compounds of the present disclosure following intravenous and oral administration in male CD 1 Mice, pharmacokinetic profile and PK parameters were obtained.
Test animals: healthy male CD1 mice (body weight 20-30 g, 18 mice, free access to food and water), provided by Sibeifu laboratory. […]
Samples collection: the healthy animals were used, weighed the bodyweight and marked at tail and cage card prior to dosing. Blood samples (0.03 mL per time point) were collected from dorsal metatarsal vein at 0.083, 0.25, 0.5, 1, 2, 4, 8, 24 h post dose for IV group and at 0.25, 0.5, 1, 2, 4, 8, 24 h post dose for PO group, the terminal time point was collected from heart (˜0.3 mL). The blood samples were put into the tube with heparin-Na coated and then put on the cold box, centrifuged at 4° C. 4000 g, 5 minutes immediately after collecting all samples per time point to get plasma. The plasma samples were stored in a freezer at −75±15° C. prior to analysis.
The drug concentration was determined by LC/MS/MS method, and the PK parameters were observed as follows.

[4] = molecular target: Wild type EGFR in A431 cells (Homo sapiens, UniProt P00533); settings: WT (A431) IC50 nM, cellular EGFR autophosphorylation, A431, 2 h treatment then EGF stimulation 10 min
Mouse in vivo PK study [5] = settings: male CD1 mice; remark: listed apart in the source
[6] = molecular target: hERG channel (HEK 293 cell line stably expressing hERG channel) (Homo sapiens, UniProt Q12809); assay: cell-based
[7] = molecular target: T4, L858R/T790M double mutant EGFR in H1975 cells (Homo sapiens, UniProt P00533, L858R/T790M); assay: L858R/T790M double mutant H1975 autophosphorylation inhibition assay (ELISA); assay type: cell-based; settings: cellular EGFR autophosphorylation, H1975, 2 h treatment; read-out: DM (H1975) IC50
T4 construct: endogenous in cells; host or cells: H1975 cells

[8] = cellular proliferation, wild type EGFR, read-out: A431 IC50 (nM) WT
[9] = NCI-H1975 cells, read-out: NCI-H1975 IC50 (nM) DM
[10] = Homo sapiens, NCI-H1975, 72 h, read-out: NCI-H1975 IC50 (nM) DM
[11] = Homo sapiens, A-431, 72 h, cellular proliferation, wild type EGFR, read-out: A431 IC50 (nM) WT
[12] = Homo sapiens, PC-9, 72 h, read-out: PC9 IC50 (nM) SM
[13] = mouse, plasma, 10 mg/kg PO, read-out: T1/2 (PO) (converted)

Chain of Wild type EGFR in A431 cells (P00533 25-1210): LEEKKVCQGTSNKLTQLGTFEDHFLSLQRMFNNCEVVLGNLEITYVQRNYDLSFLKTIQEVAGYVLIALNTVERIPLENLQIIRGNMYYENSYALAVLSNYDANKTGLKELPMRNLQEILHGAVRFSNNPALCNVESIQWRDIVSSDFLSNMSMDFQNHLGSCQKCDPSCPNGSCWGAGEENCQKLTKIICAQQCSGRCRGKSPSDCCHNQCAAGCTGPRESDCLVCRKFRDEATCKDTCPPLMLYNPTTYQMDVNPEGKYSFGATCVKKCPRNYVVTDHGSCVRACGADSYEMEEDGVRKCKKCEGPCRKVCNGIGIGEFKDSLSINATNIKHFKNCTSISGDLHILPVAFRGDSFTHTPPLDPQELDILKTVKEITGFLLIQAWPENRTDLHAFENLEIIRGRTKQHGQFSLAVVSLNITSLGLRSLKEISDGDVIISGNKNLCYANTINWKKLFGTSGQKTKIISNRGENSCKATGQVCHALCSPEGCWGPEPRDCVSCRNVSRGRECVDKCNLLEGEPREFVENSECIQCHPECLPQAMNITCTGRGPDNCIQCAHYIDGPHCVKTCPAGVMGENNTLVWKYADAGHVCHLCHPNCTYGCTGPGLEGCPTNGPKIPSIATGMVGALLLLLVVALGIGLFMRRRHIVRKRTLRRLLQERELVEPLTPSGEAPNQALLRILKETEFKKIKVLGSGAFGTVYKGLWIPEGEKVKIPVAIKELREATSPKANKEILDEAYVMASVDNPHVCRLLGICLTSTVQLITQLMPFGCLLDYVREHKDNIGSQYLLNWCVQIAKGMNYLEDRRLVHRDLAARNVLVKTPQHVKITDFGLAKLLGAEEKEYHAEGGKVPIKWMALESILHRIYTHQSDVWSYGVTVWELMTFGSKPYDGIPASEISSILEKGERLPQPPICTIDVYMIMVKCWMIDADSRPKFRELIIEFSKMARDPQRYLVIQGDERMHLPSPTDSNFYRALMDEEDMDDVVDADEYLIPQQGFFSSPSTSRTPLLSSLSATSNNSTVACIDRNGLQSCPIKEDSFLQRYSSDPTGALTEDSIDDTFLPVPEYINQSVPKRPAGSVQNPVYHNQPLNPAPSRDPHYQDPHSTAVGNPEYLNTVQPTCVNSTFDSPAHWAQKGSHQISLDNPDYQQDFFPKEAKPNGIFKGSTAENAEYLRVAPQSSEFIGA
T3 sequence (P08069 959-1367 limits assumed): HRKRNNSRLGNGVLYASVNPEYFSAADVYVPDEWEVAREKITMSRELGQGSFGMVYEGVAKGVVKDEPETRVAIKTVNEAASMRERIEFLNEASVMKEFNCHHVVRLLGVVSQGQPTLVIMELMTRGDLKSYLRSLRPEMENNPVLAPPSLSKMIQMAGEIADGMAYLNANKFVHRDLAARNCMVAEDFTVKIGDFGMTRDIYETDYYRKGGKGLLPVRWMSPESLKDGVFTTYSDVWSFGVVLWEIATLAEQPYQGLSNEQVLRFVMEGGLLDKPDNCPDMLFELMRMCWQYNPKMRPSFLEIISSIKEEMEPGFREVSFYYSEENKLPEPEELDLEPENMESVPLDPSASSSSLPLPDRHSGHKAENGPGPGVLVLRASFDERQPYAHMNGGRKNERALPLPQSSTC
T1 sequence (P06213 1005-1382 limits assumed): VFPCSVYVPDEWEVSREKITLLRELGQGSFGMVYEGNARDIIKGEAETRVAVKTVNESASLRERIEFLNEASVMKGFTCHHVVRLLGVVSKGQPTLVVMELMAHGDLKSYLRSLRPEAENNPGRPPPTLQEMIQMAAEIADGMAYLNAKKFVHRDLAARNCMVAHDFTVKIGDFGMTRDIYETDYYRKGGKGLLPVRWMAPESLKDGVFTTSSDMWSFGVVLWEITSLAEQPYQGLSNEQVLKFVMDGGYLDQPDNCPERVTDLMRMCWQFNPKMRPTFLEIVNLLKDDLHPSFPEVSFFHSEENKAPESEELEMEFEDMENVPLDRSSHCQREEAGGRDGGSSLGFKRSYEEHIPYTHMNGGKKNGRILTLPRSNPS
T2 sequence (P00533 with tags, fused parts or gaps DEL746-750): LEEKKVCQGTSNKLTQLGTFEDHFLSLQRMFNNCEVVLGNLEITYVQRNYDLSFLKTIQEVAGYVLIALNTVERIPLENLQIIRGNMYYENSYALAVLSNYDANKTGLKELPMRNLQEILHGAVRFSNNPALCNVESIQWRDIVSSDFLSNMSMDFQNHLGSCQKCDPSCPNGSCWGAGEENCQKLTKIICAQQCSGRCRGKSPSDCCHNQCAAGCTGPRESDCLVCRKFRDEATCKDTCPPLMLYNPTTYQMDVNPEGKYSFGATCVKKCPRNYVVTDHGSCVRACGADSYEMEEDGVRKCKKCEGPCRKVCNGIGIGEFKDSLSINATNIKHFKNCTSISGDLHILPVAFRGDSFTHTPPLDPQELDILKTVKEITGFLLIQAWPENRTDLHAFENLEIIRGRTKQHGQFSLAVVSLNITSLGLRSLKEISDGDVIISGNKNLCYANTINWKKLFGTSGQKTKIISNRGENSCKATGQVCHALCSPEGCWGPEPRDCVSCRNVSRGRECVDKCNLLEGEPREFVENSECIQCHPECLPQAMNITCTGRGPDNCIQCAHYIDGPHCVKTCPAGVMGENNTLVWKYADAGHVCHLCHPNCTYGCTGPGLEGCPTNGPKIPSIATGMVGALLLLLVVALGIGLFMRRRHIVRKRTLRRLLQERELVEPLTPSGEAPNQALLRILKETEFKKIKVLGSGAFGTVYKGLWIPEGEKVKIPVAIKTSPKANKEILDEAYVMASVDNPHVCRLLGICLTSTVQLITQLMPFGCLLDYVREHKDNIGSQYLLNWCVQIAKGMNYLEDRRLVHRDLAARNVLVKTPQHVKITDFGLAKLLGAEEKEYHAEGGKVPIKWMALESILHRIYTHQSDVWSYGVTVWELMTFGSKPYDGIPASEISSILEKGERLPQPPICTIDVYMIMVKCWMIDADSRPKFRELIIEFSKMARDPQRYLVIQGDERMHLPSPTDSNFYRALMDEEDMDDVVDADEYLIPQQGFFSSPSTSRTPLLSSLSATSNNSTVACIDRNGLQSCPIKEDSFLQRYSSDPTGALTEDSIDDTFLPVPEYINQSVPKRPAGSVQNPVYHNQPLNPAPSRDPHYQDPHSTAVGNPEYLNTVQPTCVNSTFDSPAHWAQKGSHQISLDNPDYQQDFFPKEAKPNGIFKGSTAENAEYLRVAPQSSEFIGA
T4 sequence (P00533 25-1210 T790M/L858R): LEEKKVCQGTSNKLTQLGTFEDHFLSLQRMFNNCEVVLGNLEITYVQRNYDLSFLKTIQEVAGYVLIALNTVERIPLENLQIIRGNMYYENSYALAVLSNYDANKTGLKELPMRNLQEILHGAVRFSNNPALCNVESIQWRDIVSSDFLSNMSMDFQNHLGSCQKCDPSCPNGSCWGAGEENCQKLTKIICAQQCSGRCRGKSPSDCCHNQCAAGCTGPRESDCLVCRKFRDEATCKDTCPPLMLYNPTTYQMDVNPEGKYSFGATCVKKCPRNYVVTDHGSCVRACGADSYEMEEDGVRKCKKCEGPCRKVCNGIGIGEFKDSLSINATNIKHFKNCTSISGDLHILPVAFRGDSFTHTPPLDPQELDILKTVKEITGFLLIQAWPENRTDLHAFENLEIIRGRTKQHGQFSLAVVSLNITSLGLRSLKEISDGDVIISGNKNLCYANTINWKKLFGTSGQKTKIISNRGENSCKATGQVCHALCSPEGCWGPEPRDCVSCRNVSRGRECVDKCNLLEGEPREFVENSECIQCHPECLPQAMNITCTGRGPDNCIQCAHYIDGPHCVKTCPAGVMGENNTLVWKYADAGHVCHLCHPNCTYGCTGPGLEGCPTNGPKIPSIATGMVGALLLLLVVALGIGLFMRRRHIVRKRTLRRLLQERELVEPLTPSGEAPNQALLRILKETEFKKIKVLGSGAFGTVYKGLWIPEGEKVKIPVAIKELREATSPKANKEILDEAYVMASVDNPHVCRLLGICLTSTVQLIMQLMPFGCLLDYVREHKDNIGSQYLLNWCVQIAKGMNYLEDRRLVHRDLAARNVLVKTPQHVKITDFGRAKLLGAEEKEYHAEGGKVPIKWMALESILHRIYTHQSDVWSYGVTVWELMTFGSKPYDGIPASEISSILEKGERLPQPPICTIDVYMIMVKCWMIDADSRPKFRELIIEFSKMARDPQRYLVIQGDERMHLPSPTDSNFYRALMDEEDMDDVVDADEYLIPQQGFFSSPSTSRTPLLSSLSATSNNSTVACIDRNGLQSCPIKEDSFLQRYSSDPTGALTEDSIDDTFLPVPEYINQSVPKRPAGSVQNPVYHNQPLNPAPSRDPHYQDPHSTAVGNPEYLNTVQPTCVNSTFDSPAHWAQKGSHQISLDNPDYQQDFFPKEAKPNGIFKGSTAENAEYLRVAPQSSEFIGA

SMILES	IC50 (A431 cells; [8]) [nM]	IC50 (H1975 cells; [9])	IC50 (INSR) [nM]	IC50 (PC-9 cells; read-out: PC9 IC50 (nM) SM)	IC50 [1]	IC50 (IGF-1R) [nM]	IC50 (H1975 cells; [10]) [nM]	IC50 (A431 cells; [11]) [nM]	IC50 [4]	IC50 (PC-9 cells; [12]) [nM]	IC50 [7]	IC50 [6] [µM]	further results
C=CC(=O)Nc1cc(Nc2nccc(-n3nc(N(C)C)c4ccsc43)n2)c(OC)cc1N(C)CCN(C)C [Example 5, N-(5-((4-(3-(Dimethylamino)-1H-thieno[2,3-c]pyrazol-1-yl)pyrimidin-2-yl)amino)-2-((2-(dimethylamino)ethyl)(methyl)amino)-4-methoxyphenyl) acrylamide]	2210	3.58 nM	2140	2.9 nM	0.0171 µM	1590	5.86	1300	148 nM	4.86	0.00646 µM	3.49	
C=CC(=O)Nc1cc(Nc2nccc(-c3cc(C#N)c4ccn(C)c4c3)n2)c(OC)cc1N(C)CCN(C)C [Example 7, N-(5-((4-(4-Cyano-1-methyl-1H-indol-6-yl)pyrimidin-2-yl)amino)-2-((2-(dimethylamino)ethyl)(methyl)amino)-4-methoxyphenyl)acrylamide]			621		0.033 µM	390	4.76	2170	302 nM	7.38	0.00826 µM	1.09	
C=CC(=O)Nc1cc(Nc2nccc(-n3nc(N(C)C)c4ncccc43)n2)c(OC(F)F)cc1N(C)CCN(C)C [Example 19]			1750		0.0147 µM	1680	2.82	953	92.8 nM	3.78	0.00535 µM	1.1	

More lines, in order of falling IC50 (INSR), values ahead:

IC50 (A431 cells; [8]) [nM]	IC50 (H1975 cells; [9])	IC50 (INSR) [nM]	IC50 (PC-9 cells; read-out: PC9 IC50 (nM) SM)	IC50 [1]	IC50 (IGF-1R) [nM]	IC50 (H1975 cells; [10]) [nM]	IC50 (A431 cells; [11]) [nM]	IC50 [4]	IC50 (PC-9 cells; [12]) [nM]	IC50 [7]	SMILES	IC50 [6] [µM]	further results
		2730		0.0238 µM	1510	6.84	1710	192 nM	7.21	0.0122 µM	C=CC(=O)Nc1cc(Nc2nccc(-n3nc(N(C)C)c4ncccc43)n2)c(OCC(F)F)cc1N(C)CCN(C)C [Example 21, N-(4-(2,2-Difluoroethoxy)-5-((4-(3-(dimethylamino)-1H-pyrazolo[4,3-b]pyridin-1-yl)pyrimidin-2-yl)amino)-2-(N-(2-(dimethylamino)ethyl)-N-methylamino)phenyl)acrylamide]	3.23	
		2530		0.00579 µM	5650	3.57	675	35 nM	1.79	0.00454 µM	C=CC(=O)Nc1cc(Nc2nccc(-n3nc(NCC)c4ncccc43)n2)c(OCC(F)F)cc1N(C)CCN(C)C [Example 22, N-(4-(2,2-Difluoroethoxy)-2-((2-(dimethylamino)ethyl)(methyl)amino)-5-((4-(3-(ethylamino)-1H-pyrazolo[4,3-b]pyridin-1-yl)pyrimidin-2-yl)amino)phenyl)acrylamide]		
3680	3.45 nM	1820	3.22 nM	0.00706 µM and 0.0054 µM	1120	4.77	2120	77.1 nM and 166 nM	4.18	0.00429 µM and 0.00254 µM	C=CC(=O)Nc1cc(Nc2nccc(-c3cc(C#N)c4c(c3)c(C)cn4C)n2)c(OC)cc1N(C)CCN(C)C [Example 2, N-(5-((4-(7-Cyano-1,3-dimethyl-1H-indol-5-yl)pyrimidin-2-yl)amino)-2-((2-(dimethylamino)ethyl)(methyl)amino)-4-methoxyphenyl)acrylamide]	6.57	AUC (Mouse in vivo PK study [3]; mouse, plasma, 2 mg/kg IV): 937 ng·h/mL; TGI (tumor growth inhibition) ([2]; 5 mg/kg): 96.93%; TRTV/CRTV (relative tumor volume) ([2]; 5 mg/kg): 19.70%; Tumor Size ([2]; 5 mg/kg): 230 ± 93 mm^3; TGI (tumor growth inhibition) ([2]; 15 mg/kg): 115.76%; TRTV/CRTV (relative tumor volume) ([2]; 15 mg/kg): 3.93%; Tumor Size ([2]; 15 mg/kg): 46 ± 32 mm^3; TGI (tumor growth inhibition) ([2]; 30 mg/kg): 115.52%; TRTV/CRTV (relative tumor volume) ([2]; 30 mg/kg): 3.92%; Tumor Size ([2]; 30 mg/kg): 45 ± 19 mm^3; F (Mouse in vivo PK study [5]; 2 mg/kg IV, 10 mg/kg PO): 20.8%; clearance (Mouse in vivo PK study [5]; mouse, plasma, 2 mg/kg IV): 35.5 mL/min/kg; half-life (Mouse in vivo PK study [5]; mouse, plasma, 2 mg/kg IV, read-out: T1/2 (IV) (converted)): 1.5 h; AUC (Mouse in vivo PK study [5]; mouse, plasma, 10 mg/kg PO): 976 ng·h/mL; Cmax (Mouse in vivo PK study [5]; mouse, plasma, 10 mg/kg PO): 119 ng/mL; half-life (Mouse in vivo PK study [5]; [13]): 2.57 h
		968		0.00587 µM	1160	2.66	1240	49.1 nM	1.79	0.00394 µM	C=CC(=O)Nc1cc(Nc2nccc(-n3nc(N(C)C)c4ccccc43)n2)c(OC(F)F)cc1N(C)CCN(C)C [Example 18, N-(4-(Difluoromethoxy)-5-((4-(3-(dimethylamino)-1H-indazol-1-yl)pyrimidin-2-yl)amino)-2-((2-(dimethylamino)ethyl)(methyl)amino)phenyl) acrylamide]	1.68	
		965		0.0109 µM	831	1.03	1460	69.5 nM	1.91	0.00198 µM	C=CC(=O)Nc1cc(Nc2nccc(-c3cc(C#N)cc4c3ccn4C)n2)c(OC)cc1N(C)CCN(C)C [Example 4, N-(5-((4-(6-Cyano-1-methyl-1H-indol-4-yl)pyrimidin-2-yl)amino)-2-((2-(dimethylamino)ethyl)(methyl)amino)-4-methoxyphenyl)acrylamide]	2.23	F (Mouse in vivo PK study [3]; 1 mg/kg IV, 10 mg/kg PO): 15%; AUC (Mouse in vivo PK study [3]; mouse, plasma, 1 mg/kg IV): 96 ng·h/mL; clearance (Mouse in vivo PK study [3]; mouse, plasma, 1 mg/kg IV): 183 mL/min/kg; half-life (Mouse in vivo PK study [3]; mouse, plasma, 1 mg/kg IV, read-out: T1/2 (IV) (converted)): 0.576 h; AUC (Mouse in vivo PK study [5]; mouse, plasma, 10 mg/kg PO): 225 ng·h/mL; Cmax (Mouse in vivo PK study [5]; mouse, plasma, 10 mg/kg PO): 80.2 ng/mL; half-life (Mouse in vivo PK study [5]; [13]): 7.3 h
95.2	2.95 nM and 3.06 nM and 4.05 nM	94.8	1.34 nM and 2.27 nM and 1.92 nM	0.00404 µM and 0.00464 µM and 0.00559 µM and 0.00583 µM	102						C=CC(=O)Nc1cc(Nc2nccc(-c3c[nH]c4ccccc34)n2)c(OC)cc1N(C)CCN(C)C [AZD5104, reference compound]		IC50 (H1975 cells; NCI-H1975 cells, listed as AZD-5104, read-out: NCI-H1975 IC50 (nM) DM): 3.9 nM; IC50 (PC-9 cells; listed as AZD-5104, read-out: PC9 IC50 (nM) SM): 1.57 nM
